Earlier results, collected in patent publication US10441535B2, “Nutraceutical confectionary composition containing caffeine and L-theanine” (NeuroGum, LLC, priority 2015, dated 2019).

Settings: human, in vivo

elimination half-life: 1 to 2 h
Substance: N-Ethyl-L-glutamine [L-theanine]
